Measured values published in patent publication US7981903B2, “2-[2-{phenylamino}-1H-pyrrolo[2,3-D]pyrimidin-4-yl)amino] benzamide derivatives as IGF-1R inhibitors for the treatment of cancer” (GlaxoSmithKline LLC, priority 2007, dated 2011).

Columns and labels:
Colo205 = assay: Inhibition of cell proliferation (CellTiter-Glo or InCell analyzer), Colo205; assay type: cell-based; details: Homo sapiens, COLO 205, 72 h / 3 days, values given as IC50 category
How it was run: In one

ALK = ALK (Homo sapiens, UniProt Q9UM73); assay: ALK enzyme assay (HTRF); assay type: biochemical; details: 0.25 nM ALK, 15.0 μM ATP, values given as pIC50 category
How it was run: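 Isolated ALK phosphorylates a biotinylated tyrosine peptide, 120 min at 20° C; anti-phosphotyrosine Eu-cryptate/streptavidin-XL665 HTRF read after 60 min with EDTA-containing detection mix.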

NCI-H929 = assay: Inhibition of cell proliferation (CellTiter-Glo or InCell analyzer), NCI-H929; assay type: cell-based; details: Homo sapiens, 72 h / 3 days, values given as IC50 category
How it was run: In one

[1] = target: T1, NIH-3T3 cells overexpressing human IR (Homo sapiens, UniProt P06213); assay: IR cellular autophosphorylation (DELFIA); assay type: cell-based; details: 2 h compound, insulin 3 ug/ml for 15 minutes, IC50 category
T1 construct: expressed in transfected cells; host or cells: NIH-3T3 (mouse fibroblasts)
How it was run: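 Receptor autophosphorylation measured by DELFIA, capturing IGF-1R or IRβ and detecting with europium anti-pTyr, reported as percent of IGF-1- or insulin-stimulated signal. Compounds (30 uM to 1.5 nM) added 2 h before ligand, then 15 min stimulation (IGF-1 30 ng/ml or insulin 3 ug/ml).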

T1 sequence (P06213 28-1382): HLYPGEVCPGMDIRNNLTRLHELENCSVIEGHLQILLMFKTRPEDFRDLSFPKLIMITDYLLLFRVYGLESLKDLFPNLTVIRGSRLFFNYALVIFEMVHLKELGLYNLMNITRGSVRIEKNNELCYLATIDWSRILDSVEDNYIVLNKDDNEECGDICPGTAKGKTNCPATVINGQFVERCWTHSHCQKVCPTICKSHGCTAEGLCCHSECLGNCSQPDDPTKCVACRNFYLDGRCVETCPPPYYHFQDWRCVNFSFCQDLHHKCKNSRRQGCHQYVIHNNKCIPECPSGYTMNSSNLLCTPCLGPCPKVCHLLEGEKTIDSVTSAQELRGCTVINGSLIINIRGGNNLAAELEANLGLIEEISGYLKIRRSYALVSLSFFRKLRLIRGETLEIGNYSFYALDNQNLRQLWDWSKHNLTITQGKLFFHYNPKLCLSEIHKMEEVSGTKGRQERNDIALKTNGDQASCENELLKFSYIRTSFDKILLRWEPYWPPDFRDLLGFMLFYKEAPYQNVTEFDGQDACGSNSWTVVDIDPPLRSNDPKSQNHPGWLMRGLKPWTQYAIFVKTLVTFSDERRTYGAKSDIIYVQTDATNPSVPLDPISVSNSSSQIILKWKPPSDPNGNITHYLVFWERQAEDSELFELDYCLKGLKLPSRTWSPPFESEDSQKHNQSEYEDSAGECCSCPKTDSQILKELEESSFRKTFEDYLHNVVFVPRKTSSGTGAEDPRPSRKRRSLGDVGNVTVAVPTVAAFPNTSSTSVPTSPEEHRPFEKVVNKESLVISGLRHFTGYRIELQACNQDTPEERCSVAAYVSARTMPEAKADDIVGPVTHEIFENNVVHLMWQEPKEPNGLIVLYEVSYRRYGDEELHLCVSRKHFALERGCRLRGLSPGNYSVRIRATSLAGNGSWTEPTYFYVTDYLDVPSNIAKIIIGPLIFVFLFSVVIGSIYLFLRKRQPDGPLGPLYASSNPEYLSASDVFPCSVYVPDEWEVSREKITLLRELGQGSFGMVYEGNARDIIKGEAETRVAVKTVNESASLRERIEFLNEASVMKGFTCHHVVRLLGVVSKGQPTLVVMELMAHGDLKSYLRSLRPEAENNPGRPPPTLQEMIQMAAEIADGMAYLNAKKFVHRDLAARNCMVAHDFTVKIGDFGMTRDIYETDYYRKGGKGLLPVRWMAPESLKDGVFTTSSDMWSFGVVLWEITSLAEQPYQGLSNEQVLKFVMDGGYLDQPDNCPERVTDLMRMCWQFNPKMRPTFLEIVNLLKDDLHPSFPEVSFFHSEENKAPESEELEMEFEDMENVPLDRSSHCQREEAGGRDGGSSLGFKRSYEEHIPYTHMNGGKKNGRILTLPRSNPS
Chain of ALK (Q9UM73 19-1620): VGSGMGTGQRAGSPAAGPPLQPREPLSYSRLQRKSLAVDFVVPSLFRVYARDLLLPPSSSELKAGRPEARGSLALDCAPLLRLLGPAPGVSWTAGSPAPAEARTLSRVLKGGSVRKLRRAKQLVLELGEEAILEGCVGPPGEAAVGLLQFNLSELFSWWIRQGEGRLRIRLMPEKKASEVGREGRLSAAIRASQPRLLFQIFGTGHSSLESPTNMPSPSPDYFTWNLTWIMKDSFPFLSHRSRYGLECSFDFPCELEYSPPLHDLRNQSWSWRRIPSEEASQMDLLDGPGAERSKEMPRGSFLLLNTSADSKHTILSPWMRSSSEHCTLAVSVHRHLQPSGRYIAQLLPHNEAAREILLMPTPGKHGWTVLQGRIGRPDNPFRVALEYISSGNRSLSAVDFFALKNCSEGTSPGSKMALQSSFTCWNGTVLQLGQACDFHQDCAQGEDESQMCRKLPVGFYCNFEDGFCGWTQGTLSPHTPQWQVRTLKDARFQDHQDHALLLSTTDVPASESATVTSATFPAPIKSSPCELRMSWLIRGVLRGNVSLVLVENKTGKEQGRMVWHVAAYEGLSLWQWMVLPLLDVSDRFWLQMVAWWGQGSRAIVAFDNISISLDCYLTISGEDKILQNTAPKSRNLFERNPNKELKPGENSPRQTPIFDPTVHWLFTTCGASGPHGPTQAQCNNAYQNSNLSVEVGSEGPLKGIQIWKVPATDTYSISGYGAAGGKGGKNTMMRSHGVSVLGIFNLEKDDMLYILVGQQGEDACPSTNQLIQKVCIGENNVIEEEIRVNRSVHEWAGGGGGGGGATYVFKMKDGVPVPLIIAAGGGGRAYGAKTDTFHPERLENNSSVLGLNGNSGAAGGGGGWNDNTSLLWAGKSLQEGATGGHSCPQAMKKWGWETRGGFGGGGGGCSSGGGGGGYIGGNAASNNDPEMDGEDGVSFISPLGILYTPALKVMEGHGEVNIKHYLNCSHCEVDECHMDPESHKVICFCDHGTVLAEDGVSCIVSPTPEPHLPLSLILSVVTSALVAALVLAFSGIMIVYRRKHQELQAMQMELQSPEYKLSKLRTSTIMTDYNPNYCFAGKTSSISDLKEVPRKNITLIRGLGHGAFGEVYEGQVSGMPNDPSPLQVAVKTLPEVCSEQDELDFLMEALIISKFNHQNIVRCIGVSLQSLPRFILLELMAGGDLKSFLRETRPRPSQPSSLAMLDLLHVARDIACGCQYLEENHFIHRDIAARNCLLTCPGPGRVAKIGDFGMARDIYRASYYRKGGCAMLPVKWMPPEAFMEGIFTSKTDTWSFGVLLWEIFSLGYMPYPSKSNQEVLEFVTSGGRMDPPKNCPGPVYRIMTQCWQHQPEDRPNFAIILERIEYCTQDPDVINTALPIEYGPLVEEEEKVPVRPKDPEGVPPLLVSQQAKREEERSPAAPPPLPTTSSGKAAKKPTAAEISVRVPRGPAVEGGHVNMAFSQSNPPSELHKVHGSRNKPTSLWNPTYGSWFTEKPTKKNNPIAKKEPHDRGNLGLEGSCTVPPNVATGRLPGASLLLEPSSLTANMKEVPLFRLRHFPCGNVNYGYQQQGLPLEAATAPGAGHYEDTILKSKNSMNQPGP

Row | SMILES | IC50 (Colo205) [nM] | IC50 (ALK) [nM] | IC50 (NCI-H929) [nM] | IC50 [1] [nM]
1 | CNC(=O)c1c(F)cc(F)cc1Nc1nc(Nc2cc3c(cc2OC)CCN3C(=O)CN(C)C)nc2[nH]ccc12 [Example 190, 2-[(2-{[1-(N,N-dimethylglycyl)-5-(methyloxy)-2,3-dihydro-1H-indol-6-yl]amino}-1H-pyrrolo[2,3-d]pyrimidin-4-yl)amino]-4,6-difluoro-N-methylbenzamide] | 250 to 1000 | 0.251 to 1 | < 250 | < 100
2 | CNC(=O)c1cc2ccccc2cc1Nc1nc(Nc2cc3c(cc2OC)CCN3C(=O)CN(C)C)nc2[nH]ccc12 [Example 125, 3-[(2-{[1-(N,N-dimethylglycyl)-5-(methyloxy)-2,3-dihydro-1H-indol-6-yl]amino}-1H-pyrrolo[2,3-d]pyrimidin-4-yl)amino]-N-methyl-2-naphthalenecarboxamide] | 250 to 1000 | 5.01 to 200 | < 250 | 100 to 500
3 | COc1cc2c(cc1Nc1nc(Nc3cccc(F)c3C(N)=O)c3cc[nH]c3n1)CN(C(=O)CCN1CCN(C(C)C)CC1)CC2 [Example 229, 2-fluoro-6-[(2-{[2-{3-[4-(1-methylethyl)-1-piperazinyl]propanoyl}-6-(methyloxy)-1,2,3,4-tetrahydro-7-isoquinolinyl]amino}-1H-pyrrolo[2,3-d]pyrimidin-4-yl)amino]benzamide] | > 1000 | 5.01 to 200 | 250 to 1000 | > 500
4 | COc1cc2c(cc1Nc1nc(Nc3cc4ccccc4cc3C(N)=O)c3cc[nH]c3n1)N(C(=O)CN(C)C)CC2 [Example 124, 3-[(2-{[1-(N,N-dimethylglycyl)-5-(methyloxy)-2,3-dihydro-1H-indol-6-yl]amino}-1H-pyrrolo[2,3-d]pyrimidin-4-yl)amino]-2-naphthalenecarboxamide] | < 250 | 1.26 to 3.98 | < 250 | 100 to 500
5 | CCCN1CCC=C(c2ccc(Nc3nc(Nc4ccccc4C(N)=O)c4cc[nH]c4n3)c(OC)c2)C1 [Example 2, 2-[(2-{[2-(methyloxy)-4-(1-propyl-1,2,5,6-tetrahydro-3-pyridinyl)phenyl]amino}-1H-pyrrolo[2,3-d]pyrimidin-4-yl)amino]benzamide] | < 250 | 0.251 to 1 | < 250 | 100 to 500
6 | COc1cc2c(cc1Nc1nc(Nc3cc(F)cc(F)c3C(N)=O)c3cc[nH]c3n1)N(C(=O)CN(C)C)CCC2 [Example 178, 2-[(2-{[1-(N,N-dimethylglycyl)-6-(methyloxy)-1,2,3,4-tetrahydro-7-quinolinyl]amino}-1H-pyrrolo[2,3-d]pyrimidin-4-yl)amino]-4,6-difluorobenzamide] | < 250 | 0.251 to 1 | < 250 | < 100
7 | COc1ccc(OC[C@@H](O)CN(C)C)cc1Nc1nc(Nc2cc(F)ccc2C(N)=O)c2cc[nH]c2n1 [Example 86, 2-[(2-{[5-{[(2S)-3-(dimethylamino)-2-hydroxypropyl]oxy}-2-(methyloxy)phenyl]amino}-1H-pyrrolo[2,3-d]pyrimidin-4-yl)amino]-4-fluorobenzamide] | < 250 | 0.251 to 1 |  | > 500
8 | COc1cc2c(cc1Nc1nc(Nc3cccc(F)c3C(N)=O)c3cc(C)[nH]c3n1)N(C(=O)CN(C)C)CC2 [Example 262, 2-[(2-{[1-(N,N-dimethylglycyl)-5-(methyloxy)-2,3-dihydro-1H-indol-6-yl]amino}-6-methyl-1H-pyrrolo[2,3-d]pyrimidin-4-yl)amino]-6-fluorobenzamide] | > 1000 | 5.01 to 200 | > 1000 | 100 to 500
9 | COc1cc2c(cc1Nc1nc(Nc3cccc(F)c3C(N)=O)c3cc[nH]c3n1)N(C(=O)CN(C)C)CC2 [Example 53, 2-[(2-{[1-(N,N-dimethylglycyl)-5-(methyloxy)-2,3-dihydro-1H-indol-6-yl]amino}-1H-pyrrolo[2,3-d]pyrimidin-4-yl)amino]-6-fluorobenzamide] | < 250 | 0.251 to 1 | < 250 | < 100
10 | COc1cc2c(cc1Nc1nc(Nc3cccc(F)c3C(N)=O)c3cc[nH]c3n1)NCCC2 [Example 211, 2-fluoro-6-[(2-{[6-(methyloxy)-1,2,3,4-tetrahydro-7-quinolinyl]amino}-1H-pyrrolo[2,3-d]pyrimidin-4-yl)amino]benzamide] | > 1000 | 5.01 to 200 | > 1000 | > 500
11 | CNC(=O)c1c(F)cccc1Nc1nc(Nc2cc3c(cc2OC)CCN(C(C)C)C3)nc2[nH]ccc12 [Example 235, 2-fluoro-N-methyl-6-[(2-{[2-(1-methylethyl)-6-(methyloxy)-1,2,3,4-tetrahydro-7-isoquinolinyl]amino}-1H-pyrrolo[2,3-d]pyrimidin-4-yl)amino]benzamide] | > 1000 | 1.26 to 3.98 | < 250 | > 500
12 | COc1cc2c(cc1Nc1nc(Nc3cccc(F)c3C(N)=O)c3cc[nH]c3n1)N(C(=O)CN1CCCCC1)CCC2 [Example 218, 2-fluoro-6-[(2-{[6-(methyloxy)-1-(1-piperidinylacetyl)-1,2,3,4-tetrahydro-7-quinolinyl]amino}-1H-pyrrolo[2,3-d]pyrimidin-4-yl)amino]benzamide] | < 250 | 0.251 to 1 | < 250 | < 100
13 | CNC(=O)c1c(F)cccc1Nc1nc(Nc2cc3c(cc2OC)CCN3C(=O)C(C)(C)O)nc2[nH]ccc12 [Example 193, 2-fluoro-6-[(2-{[1-(2-hydroxy-2-methylpropanoyl)-5-(methyloxy)-2,3-dihydro-1H-indol-6-yl]amino}-1H-pyrrolo[2,3-d]pyrimidin-4-yl)amino]-N-methylbenzamide] | > 1000 | 5.01 to 200 | > 1000 | > 500
14 | COc1cc(N2CCN(C(C)C)CC2)c(C)cc1Nc1nc(Nc2cc(F)cc(F)c2C(N)=O)c2cc[nH]c2n1 [Example 91, 2,4-difluoro-6-[(2-{[5-methyl-4-[4-(1-methylethyl)-1-piperazinyl]-2-(methyloxy)phenyl]amino}-1H-pyrrolo[2,3-d]pyrimidin-4-yl)amino]benzamide] | < 250 | 0.251 to 1 | < 250 | < 100
15 | COc1ccc(NC(=O)CN(C)C)cc1Nc1nc(Nc2ccccc2C(N)=O)c2cc[nH]c2n1 [Example 15, 2-[(2-{[5-[(N,N-dimethylglycyl)amino]-2-(methyloxy)phenyl]amino}-1H-pyrrolo[2,3-d]pyrimidin-4-yl)amino]benzamide] | < 250 | 0.251 to 1 |  | 
16 | CCCN1CCC=C(c2ccc(Nc3nc(Nc4ccc(F)cc4C(N)=O)c4cc[nH]c4n3)c(OC)c2)C1 [Example 54, 5-fluoro-2-[(2-{[2-(methyloxy)-4-(1-propyl-1,2,5,6-tetrahydro-3-pyridinyl)phenyl]amino}-1H-pyrrolo[2,3-d]pyrimidin-4-yl)amino]benzamide] | < 250 | 0.251 to 1 |  | 100 to 500
17 | COc1cc(N2CCC(N3CCOCC3)CC2)ccc1Nc1nc(Nc2cc(F)ccc2C(N)=O)c2cc[nH]c2n1 [Example 78, 4-fluoro-2-{[2-({2-(methyloxy)-4-[4-(4-morpholinyl)-1-piperidinyl]phenyl}amino)-1H-pyrrolo[2,3-d]pyrimidin-4-yl]amino}benzamide] | 250 to 1000 | 0.251 to 1 |  | 100 to 500
18 | CCCN1CCCC(c2ccc(Nc3nc(Nc4ccccc4C(N)=O)c4cc[nH]c4n3)c(OC)c2)C1 (stereo not shown) [Example 3, 2-[(2-{[2-(methyloxy)-4-(1-propyl-3-piperidinyl)phenyl]amino}-1H-pyrrolo[2,3-d]pyrimidin-4-yl)amino]benzamide] | < 250 | 0.251 to 1 |  | < 100
19 | CN(C)CC(=O)Nc1ccc(F)c(Nc2nc(Nc3ccccc3C(N)=O)c3cc[nH]c3n2)c1 [Example 17, 2-{[2-({5-[(N,N-dimethylglycyl)amino]-2-fluorophenyl}amino)-1H-pyrrolo[2,3-d]pyrimidin-4-yl]amino}benzamide] | < 250 | 0.251 to 1 |  | 
20 | CN(C)CC(=O)Nc1ccc(OC(F)(F)F)c(Nc2nc(Nc3ccccc3C(N)=O)c3cc[nH]c3n2)c1 [Example 16, 2-{[2-({5-[(N,N-dimethylglycyl)amino]-2-[(trifluoromethyl)oxy]phenyl}amino)-1H-pyrrolo[2,3-d]pyrimidin-4-yl]amino}benzamide] | 250 to 1000 | 0.251 to 1 |  | 100 to 500
21 | COc1ccc(OC[C@@H](O)CN2CCCC2)cc1Nc1nc(Nc2cc(F)c(F)cc2C(N)=O)c2cc[nH]c2n1 [Example 107, 4,5-difluoro-2-[(2-{[5-{[(2S)-2-hydroxy-3-(1-pyrrolidinyl)propyl]oxy}-2-(methyloxy)phenyl]amino}-1H-pyrrolo[2,3-d]pyrimidin-4-yl)amino]benzamide] | 250 to 1000 | 1.26 to 3.98 |  | > 500
22 | COc1cc(N2CCOC[C@@H]2C)ccc1Nc1nc(Nc2cc(F)ccc2C(N)=O)c2cc[nH]c2n1 [Example 84, 4-fluoro-2-[(2-{[4-[(3S)-3-methyl-4-morpholinyl]-2-(methyloxy)phenyl]amino}-1H-pyrrolo[2,3-d]pyrimidin-4-yl)amino]benzamide] | < 250 | 1.26 to 3.98 |  | < 100
23 | COc1ccc(C(N)=O)c(Nc2nc(Nc3ccc(N4CCOC[C@@H]4C)cc3OC)nc3[nH]ccc23)c1 [Example 39, 2-[(2-{[4-[(3S)-3-methyl-4-morpholinyl]-2-(methyloxy)phenyl]amino}-1H-pyrrolo[2,3-d]pyrimidin-4-yl)amino]-4-(methyloxy)benzamide] | 250 to 1000 | 1.26 to 3.98 |  | 
